According to PMC7536268, “Increased Antimicrobial Activity of Colistin in Combination With Gamithromycin Against Pasteurella multocida in a Neutropenic Murine Lung Infection Model” (Frontiers in Microbiology, 2020):
Where a name gives a salt, the structure may show the parent alone. Read-outs that look alike come from different tables or passages of the source.

Assays:
[1] = test system: Pasteurella multocida strains; assay: MIC by broth microdilution (CLSI); format: cell-based; conditions: drug alone, against three strains (D18, T5, and WJ11)
Experimental: The susceptibility of the selected P. multocida isolates and the quality control isolate (ATCC 25922) to colistin, gamithromycin, cefquinome, enrofloxacin, tilmicosin, tylosin tartrate, and florfenicol alone was determined using the microdilution method in broth (conducted in triplicate) according to the guiding principles of the CLSI. Based on the action mechanism of each drug, the antimicrobial activity of colistin or cefquinome (drug A) in combination with gamithromycin, enrofloxacin, tilmicosin, tylosin tartrate, or florfenicol (drug B) was determined with the checkerboard method, according to the minimal inhibitory concentration (MIC) of each drug. Briefly, 50 μL of MH II broth was added to each well, and 50 μL of the indicated concentration of colistin or cefquinome was added into the first well of each line. This was followed by multiproportion dilution. Next, 50-μL samples of different concentrations of gamithromycin or the other drugs mentioned above were added to the dilution medium, and a 100 μL inoculum with a cell density of ∼1 × 10^6 colony-forming units (CFU)/mL was added to each well. The plates were then incubated at 37°C for 24 h. According to the EUCAST definitive document E.Def 1.2 ([Mccullough, 2010]), the fractional inhibitory concentration (FIC) index for combined administrations was defined as the sum of the FIC of drug A and the FIC of drug B, where FIC is the MIC of the drug combined with other drugs, divided by the MIC of the drug alone.

P. multocida = test system: P. multocida; design: method as in Benoit et al., 2011; conditions: P. multocida with erm(E); ref Benoit et al., 2011; cited from earlier work
Description: Bovine respiratory disease (BRD) associated with Mannheimia haemolytica, P. multocida, and Histophilus somni is one of the most economically important diseases that occur in feedlots, and the global losses are estimated at over $3 billion per year ([Watts and Sweeney, 2010]).

[2] = Pasteurella multocida, read-out: MIC

## CO/N=C(\C(=O)N[C@@H]1C(=O)N2C(C(=O)[O-])=C(C[n+]3cccc4c3CCCC4)CS[C@H]12)c1csc(N)n1 [cefquinome, Cefquinome]
[1]
  MIC: more than 64 mg/L

## CCN1CCN(c2cc3c(cc2F)c(=O)c(C(=O)O)cn3C2CC2)CC1 [enrofloxacin, Enrofloxacin]
[1]; [2]
  MIC: > 64 µg/mL

## CS(=O)(=O)c1ccc([C@@H](O)[C@@H](CF)NC(=O)C(Cl)Cl)cc1 [florfenicol]
[1]; [2]
  MIC: 2 to 4 µg/mL

## CC[C@H]1OC(=O)C[C@@H](O)[C@H](C)[C@@H](O[C@@H]2O[C@H](C)[C@@H](O)[C@H](N(C)C)[C@H]2O)[C@@H](CCN2C[C@H](C)C[C@H](C)C2)C[C@@H](C)C(=O)/C=C/C(C)=C/[C@@H]1CO[C@@H]1O[C@H](C)[C@@H](O)[C@@H](OC)[C@H]1OC [tilmicosin]
[1]; [2]
  MIC: 2 to 4 µg/mL
P. multocida
  MIC: ≥ 512 µg/mL

## CCCNC[C@]1(O)[C@H](C)O[C@@H](O[C@H]2[C@H](C)[C@@H](O[C@@H]3O[C@H](C)C[C@H](N(C)C)[C@H]3O)[C@](C)(O)C[C@@H](C)CN[C@H](C)[C@@H](O)[C@](C)(O)[C@@H](CC)OC(=O)[C@@H]2C)C[C@@]1(C)OC [tulathromycin]
P. multocida
  MIC: ≥ 512 µg/mL

## CC[C@H]1OC(=O)C[C@@H](O)[C@H](C)[C@@H](O[C@@H]2O[C@H](C)[C@@H](O[C@H]3C[C@@](C)(O)[C@@H](O)[C@H](C)O3)[C@H](N(C)C)[C@H]2O)[C@@H](CC=O)C[C@@H](C)C(=O)/C=C/C(C)=C/[C@@H]1CO[C@@H]1O[C@H](C)[C@@H](O)[C@@H](OC)[C@H]1OC [tylosin, tylosin tartrate]
[1]; [2]
  MIC: > 64 µg/mL
P. multocida
  MIC: ≥ 512 µg/mL
